Experimental data published in PubChem BioAssay AID179 (DTP/NCI, 2004).
The source made the active and inactive calls.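 How the source made its calls: active means compounds giving half or more protection of infected cells from virus-caused growth loss, again on retest; inactive means the rest.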

Tested on: CEM cells HIV-1 protection, formazan growth assay
Assay: NCI AIDS Antiviral Assay
Details: for IC50: measured here: growth of uninfected CEM cells
In short: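 Steps: treat uninfected and HIV-1-infected human CEM cells at five drug levels; quantify growth by soluble formazan; retest any compound reaching 50% protection; classify actives from the retest.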

Compound | EC50 | IC50 | outcome
Cc1cn(C2OC(CO)CC2F)c(=O)[nH]c1=O (centres undefined) | > 646 µM | > 646 µM | –
COc1ccc(Sc2ccccc2[N+](=O)[O-])cc1 | – | – | inactive
COc1ccc(S(=O)(=O)NCCSSCCNS(=O)(=O)c2ccc(OC)cc2)cc1 | > 200 µM | 26.9 µM | –
N#CC(C#N)=C1NC(=O)C(c2ccccc2)C(=O)N1 (centres undefined) | – | – | inactive
COc1cccc2c(=O)c3c(O)c4cc(N(C)C)ccc4c(OC(C)=O)c3oc12 | > 200 µM | 8.91 µM | –
C[C@H]1C(=O)O[C@@H]1[C@H]1COC(C)(C)O1 | > 200 µM | > 200 µM | –
CC[C@@]1(OC(=O)C(N)CCC(=O)O)C(=O)OCc2c1cc1n(c2=O)Cc2cc3ccccc3nc2-1 (some centres undefined) | > 10 µM | 0.0145 µM | –
C/C(=N\NC(=S)N(C)C)c1ccccn1 | > 2.24 µM | 0.0138 µM | –
O=C(O)C1C(C(=O)O)C2C=CC1C21CCCC1 (centres undefined) | > 380 µM | > 380 µM | –
Nc1ccccc1C(=O)CCc1ccccc1C(=O)O | – | – | inactive
CC1=Nc2nc(=NCCCN(C)C)nc3cccc(n23)N1 | > 200 µM | > 200 µM | –
C=CCCCCOC1C=CC(OC(C)=O)C(COC(C)=O)O1 (centres undefined) | > 200 µM | > 200 µM | –
Nc1c(Cl)ncnc1Nc1ccc(Cc2ccc(Nc3ncnc(Cl)c3N)cc2)cc1 | > 79.4 µM | > 79.4 µM | –
CSC1CC2C(CC1(C)SC)C2(C)C (centres undefined) | > 155 µM | > 155 µM | –
CNC(C)C#N (centres undefined) | – | – | inactive
Cc1c(O)c(OC2OC(CO)C(O)C(O)C2O)cc2c1C=C[C@@H]1[C@@]2(C)C(=O)C[C@]2(C)[C@@H]([C@@](C)(O)C(=O)CCC(C)(C)O)[C@H](O)C[C@@]12C (some centres undefined) | > 200 µM | 93.3 µM | –
Cc1cccc(C(=O)O)c1C(=O)c1cccc2ccccc12 | – | – | inactive
NC1=Nc2cc(C(F)(F)F)ccc2Sc2nc3ccccc3n21 | > 200 µM | – | –
COc1ccc(N(C)S(=O)(=O)c2ccccc2)cc1 | > 200 µM | 123 µM | –
CCOc1ccc(N2CC(=O)N3CCCC(C)N3C(=O)C2)cc1 (centres undefined) | > 200 µM | 170 µM | –
O=S(=O)(O)CC(O)CCl (centres undefined) | > 200 µM | > 200 µM | –
Nc1nc(N)nc(-c2cccs2)n1 | > 200 µM | > 200 µM | –
C=C(C)CS(=O)(=O)O | > 200 µM | > 200 µM | –
O=C(Nc1cccc([N+](=O)[O-])c1)c1n[nH]n(-c2cccc([N+](=O)[O-])c2)c1=O | > 200 µM | > 200 µM | –

Compound | EC50 | IC50 | outcome
CCOC(=O)C1c2[nH]c3ccccc3c2CCN1C(=O)c1ccco1 (centres undefined) | > 77.6 µM | > 77.6 µM | –
COc1cc(C(=O)N(C(=O)N2CCCCC2)c2ccccc2)cc(OC)c1OC | > 200 µM | > 200 µM | –
NC(=O)c1cc2ccccc2[n+](Cc2ccc(F)cc2)c1 | 200 µM | 339 µM | –
NC(=O)OCC(COc1ccc(Cl)cc1)OC(=O)c1cc([N+](=O)[O-])cc([N+](=O)[O-])c1 (centres undefined) | > 562 µM | 398 µM | –
O=[N+]([O-])c1cccc2c([As](=O)(O)O)cccc12 | > 200 µM | 91.2 µM | –
CN1C2CCC1[C@@H](CO)[C@@H](O)C2 (some centres undefined) | > 1200 µM | > 1200 µM | –
O=C1Sc2cc3c(cc2C(=O)N2CCCC12)OCO3 (centres undefined) | > 182 µM | 129 µM | –
N[C@@H](CSSCCO)C(=O)O | > 200 µM | > 200 µM | –
O=C(O)C(=O)CC(=O)c1ccc(Cl)cc1 | > 200 µM | > 200 µM | –
COC1=CC(=O)c2c(O)c3c(c(O)c2C1=O)C[C@](C)(O)C[C@@H]3O | – | – | inactive
N#CN1CCC=C(c2cc3ccccc3[nH]2)C1 | > 115 µM | 60.3 µM | –
CCOC(=O)C1=c2[nH]c3cccc4cccc(c43)n2C(=O)CC1c1ccccc1 (centres undefined) | > 100 µM | 75.9 µM | –
Cc1ccc2c(c1C)C(=O)/C(=C/c1cccc(C)c1C(=O)O)C2 | – | – | inactive
CCOC(=O)/C(C#N)=C1/Sc2c(ncn(/N=C/c3ccc(OC)cc3)c2=O)N1c1ccccc1 | > 7.94 µM | > 7.94 µM | –
CCOC(=O)CCc1c(C)c2ccc(O)cc2oc1=O | > 200 µM | > 200 µM | –
N#Cc1nc(-c2cccnc2)oc1N | > 200 µM | > 200 µM | –
CCOC(=O)C(/C(=N/NC(=O)OC)C(=O)Nc1ccc(C(C)=O)cc1)c1cnc2ccccc2n1 (centres undefined) | > 39.8 µM | > 39.8 µM | –
CNC(=S)N/N=C(\C)c1ccc(OC)cc1O | > 200 µM | 13.8 µM | –
CC1=C(/C(C)=C\C(=O)O)CC2C(C)C(=O)CO[C@H]2C1 (some centres undefined) | – | – | inactive
c1ccc(NNC2=NCCN2)cc1 | > 200 µM | 55 µM | –
CC(C)(C)OC(=O)N1CCCC1C(=O)NCCNc1ccc(NCCNC(=O)C2CCCN2C(=O)OC(C)(C)C)c2c1C(=O)c1ccccc1C2=O (centres undefined) | > 151 µM | 6.61 µM | –
COC(=O)c1c2c(cc3c1CC1(C3)Cc3cc4c(c(C(=O)OC)c3C1)CCC4)CCC2 | > 200 µM | > 200 µM | –
CCCCCC(=O)OCCOCCOCCOCCOCCOCc1ccccc1 | – | – | inactive
